Tests used:
human CB1 receptor = biological target: T1, human CB1 receptor (Homo sapiens, UniProt P21554); assay: In-vitro determination of efficacy and potency at the human CB1 receptor expressed in CHO cells (luciferase reporter assay); type: cell-based; conditions: CHO cells expressing the human CB1 receptor and a luciferase reporter gene; 5 h at 37 °C
T1 construct: expressed in transfected cells; host or cells: CHO (Chinese Hamster Ovary) cells
Procedure: Methods to determine receptor binding as well as in vitro biological activity of cannabinoid receptor modulators are well known in the art. In general, expressed receptor is contacted with the compound to be tested and binding or stimulation or inhibition of a functional response is measured. To measure a functional response isolated DNA encoding the CB1 receptor gene, preferably the human receptor, is expressed in suitable host cells. Such a cell might be the Chinese Hamster Ovary cell, but other cells are also suitable. Preferably the cells are of mammalian origin. Methods to construct recombinant CB1 expressing cell lines are well known in the art (Sambrook et al, Molecular Cloning: a Laboratory Manual, Cold Spring Harbor Laboratory Press, Cold Spring Harbor, latest edition). Expression of the receptor is attained by expression of the DNA encoding the desired protein. Techniques for ligation of additional sequences and construction of suitable expression systems are all, by now, well known in the art. Portions or all of the DNA encoding the desired protein can be constructed synthetically using standard solid phase techniques, preferably to include restriction sites for ease of ligation. Suitable control elements for transcription and translation of the included coding sequence can be provided to the DNA coding sequences. As is well known, expression systems are now available which are compatible with a wide variety of hosts, including prokaryotic hosts such as bacteria and eukaryotic hosts such as yeast, plant cells, insect cells, mammalian cells, avian cells and the like. Cells expressing the receptor are then contacted with the test compound to observe binding, or stimulation or inhibition of a functional response. Alternatively isolated cell membranes containing the expressed CB1 (or CB2) receptor may be used to measure binding of compound. For measurement of binding radioactively or fluorescently labelled compounds may be used. The most widely used radiolabelled cannabinoid probe is [^3H]CP55940, which has approximately equal affinity for CB1 and CB2 binding sites. Functional CB1 agonist activity may be measured by determining the second messenger response, such as for example measurement of receptor mediated changes in cAMP or MAPkinase pathways. Thus, such a method involves expression of the CB1 receptor on the cell surface of a host cell and exposing the cell to the test compound. The second messenger response is then measured. The level of second messenger will be reduced or increased, depending on the effect of the test compound upon binding to the receptor.
In-vitro determination of efficacy and potency at the human CB1 receptor expressed in CHO cells
Chinese Hamster Ovary (CHO) cells expressing the human CB1 receptor and a luciferase reporter gene were suspended in phenol red/serum free DMEM/F-12 nut mix containing penicillin/streptomycin (50U/50 µg/ml) and fungizone (1 µg/ml) and seeded into 96 well plates at a density of 3 x 10^4 cells per well (100 µl final volume). Cells were incubated overnight (approx. 18 h at 37°C, 5% CO2/95% air) prior to assay. The test compound (10 mM solution in dimethylsulfoxide) was diluted in F12 Nut Mix to give a range of stock solutions from 0.11 mM to 0.11 nM. The stock solutions (10 µl) were added directly to the relevant wells. The plates were incubated at 37 °C for 5 h to allow agonist-induced expression of the luciferase enzyme. Under subdued light, LucLite substrate (Packard; reconstituted as per manufacturer's instructions; 100 µl) was added to each well. Plates were covered with Top Seal and then incubated at room temperature for 5 minutes before counting on the Packard TopCount (single photon counting, 0.01 minute count time, 5 minute count delay). A "best-fit" curve was fitted by a minimum sum of squares method to the plot of counts per second (CPS) against compound concentration (M) to obtain an EC50 value. […]

Mice = assay: Formalin Paw Test in Mice; type: in vivo; conditions: Mus musculus, iv, administered intravenously 5 minutes before 5% formalin, Phase 2 = between 20 and 30 min after formalin injection, read-out: ED50, inhibition of the nociceptive behaviour of Phase 2
Procedure: Formalin Paw Test in Mice
Four - six groups of six mice were treated with vehicle and one of four to five doses of the test compound (typically between 0.03, 0.1, 3 and 10 µmol/kg), administered intravenously into the tail vein (vehicle: 10% Tween-80 in saline; injection volume 10 ml/kg). This injection was followed 5 minutes later by 20 µl of 5% formalin, which was administered sub-cutaneously to the dorsum of the left hind paw. Immediately after formalin administration the animal was placed in a test chamber and data acquisition, using a detection device (Automated Nociception Analyser (ANA); Department of Anesthesiology, University of California, San Diego), was started, independently for each chamber. The nociceptive behaviour was measured as the number of counts (licking, lifting, biting and flinching actions) detected within the two phases of nociception (Yaksh et al, 2001). The nociceptive behaviour between 0 and 5 min after formalin injection (Phase 1) and between 20 and 30 min after formalin injection (Phase 2) was recorded and number of counts for each mouse, compared to the mean number of counts for the vehicle treated animals, was calculated. Once values for each mouse were obtained, the mean and s.e.m. were calculated for each treatment group. The percent inhibition data were then used to calculate ED50 values for Phase 1 and Phase 2.

T1 sequence (P21554 whole entry): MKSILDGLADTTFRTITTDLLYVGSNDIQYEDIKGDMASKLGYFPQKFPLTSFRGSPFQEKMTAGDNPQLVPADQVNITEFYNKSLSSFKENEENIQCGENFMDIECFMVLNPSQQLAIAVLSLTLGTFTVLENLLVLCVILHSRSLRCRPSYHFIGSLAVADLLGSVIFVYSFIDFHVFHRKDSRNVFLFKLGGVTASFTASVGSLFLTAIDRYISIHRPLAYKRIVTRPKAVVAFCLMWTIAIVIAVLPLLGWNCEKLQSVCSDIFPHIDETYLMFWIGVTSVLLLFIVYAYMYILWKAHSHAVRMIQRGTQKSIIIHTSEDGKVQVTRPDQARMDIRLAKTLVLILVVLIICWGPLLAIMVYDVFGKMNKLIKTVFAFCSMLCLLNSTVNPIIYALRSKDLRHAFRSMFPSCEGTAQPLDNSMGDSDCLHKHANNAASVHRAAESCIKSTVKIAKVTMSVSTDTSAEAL

## CN(CC(=O)NCCO)Cc1nc(-c2cn(CC3CCOCC3)c3c(Cl)cccc23)no1 [Example 20B, 7-Chloro-3-({5-[(N-{[N-(2-hydroxyethyl)]carboxamido}methyl)-N-methylamino]methyl}-[1,2,4]oxadiazol-3-yl)-1-(tetrahydropyran-4-yl)methyl-1H-indole]
Human CB1 receptor
  EC50: 50.1 nM

## CS(=O)(=O)N(CCO)Cc1nc(-c2cn(CC3CCOCC3)c3c(Cl)cccc23)ns1 [Example 15, 7-Chloro-3-({5-[(N-{2-hydroxy}ethyl)-(N-{methylsulfonyl})amino]methyl}-([1,2,4]-thiadiazol-3-yl))-1-(tetrahydropyran-4-yl)methyl-1H-indole]
Human CB1 receptor
  EC50: 20 nM
Mice
  ED50: < 5 µmol/kg

## COCCN(Cc1nc(-c2cn(CC3CCOCC3)c3c(Cl)cccc23)ns1)S(C)(=O)=O [Example 7, 7-Chloro-3-({5-[(N-{2-methoxy}ethyl)-(N-{methylsulfonyl})amino]methyl}-([1,2,4]-thiadiazol-3-yl))-1-(tetrahydropyran-4-yl)methyl-1H-indole]
Human CB1 receptor
  EC50: 79.4 nM

## CS(=O)(=O)N1CCC[C@H]1c1nnc(-c2cn(CC3CCOCC3)c3c(Cl)cccc23)o1 [Example 18, (S)-7-Chloro-3-[(5-{N-methylsulfonyl}pyrrolidin-2-yl)-([1,3,4]-oxadiazol-2-yl)]-1-(tetrahydropyran-4-yl)methyl-1H-indole]
Human CB1 receptor
  pEC50: 7.2

## 7-Ethyl-3-[(5-{N-[4-(carboxamido)methyl]piperidin-1-yl}methyl)-([1,2,4]-thiadiazol-3-yl)]-1-(tetrahydropyran-4-yl)methyl-1H-indole [Example 12]
Human CB1 receptor
  pEC50: 6.9

## O=C(NCCO)C1CCN(Cc2nc(-c3cn(CC4CCOCC4)c4c(Cl)cccc34)no2)CC1 [Example 19, 7-Chloro-3-[(5-{4-[(N-{2-hydroxy}ethyl)carboxamido]piperidin-1-yl}methyl)-([1,2,4]oxadiazol-3-yl)]-1-(tetrahydropyran-4-yl)methyl-1H-indole]
Human CB1 receptor
  EC50: 79.4 nM
Mice
  ED50: < 5 µmol/kg

## O=C(NCCO)[C@H]1CCCN(Cc2nc(-c3cn(CC4CCS(=O)(=O)CC4)c4c(Cl)cccc34)ns2)C1 [Example 13, (S)-7-Chloro-3-[(5-{[3-N-(2-hydroxyethyl)carboxamido]piperidin-1-yl}methyl)-([1,2,4]-thiadiazol-3-yl)]-1-(1,1-dioxo-hexahydrothiopyran-4-yl)methyl-1H-indole]
Human CB1 receptor
  pEC50: 6.9

## COCC(=O)NCc1nc(-c2cn(CC3CCOCC3)c3c(Cl)cccc23)no1 [Example 24, 7-Chloro-3-[(5-{[N-methoxymethylformyl]amino}methyl)-([1,2,4]-oxadiazol-3-yl)]-1-(tetrahydropyran-4-yl)methyl-1H-indole]
Human CB1 receptor
  EC50: 200 nM

## OCC1CCN(Cc2nnc(-c3cn(CC4CCCCC4)c4c(Cl)cccc34)o2)CC1 [Example 17, 7-Chloro-3-[(5-{4-[hydroxymethyl]piperidin-1-yl}methyl)-([1,3,4]-oxadiazol-2-yl)]-1-(cyclohexyl)methyl-1H-indole]
Human CB1 receptor
  EC50: 126 nM

## CN(CC(=O)NCC(N)=O)Cc1nc(-c2cn(CC3CCOCC3)c3c(Cl)cccc23)no1 [Example 20A]
Human CB1 receptor
  EC50: 31.6 nM

## CCc1cccc2c(-c3nsc(CN4CCC(C(=O)NCCO)CC4)n3)cn(CC3CCOCC3)c12 [Example 10A, 7-Ethyl-3-[(5-{4-[(N-{2-hydroxy}ethyl)carboxamido]piperidin-1-yl}methyl)-([1,2,4]-thiadiazol-3-yl)]-1-(tetrahydropyran-4-yl)methyl-1H-indole]
Human CB1 receptor
  EC50: 12.6 nM
Mice
  ED50: < 5 µmol/kg

## CCc1cccc2c(-c3nsc(CN(C)CC(N)=O)n3)cn(CC3CCOCC3)c12 [Example 9, 7-Ethyl-3-[(5-{[N-(carboxamido)methyl]-N-methylamino}methyl)-([1,2,4]-thiadiazol-3-yl)]-1-(tetrahydropyran-4-yl)methyl-1H-indole]
Human CB1 receptor
  EC50: 126 nM

## CN(C)S(=O)(=O)N(CCO)Cc1nc(-c2cn(CC3CCOCC3)c3c(Cl)cccc23)no1 [Example 25, 7-Chloro-3-[(5-{N-(N',N'-dimethylsulfonamido)}-(N-{2-hydroxy}ethylamino)methyl)-([1,2,4]-oxadiazol-3-yl)]-1-(tetrahydropyran-4-yl)methyl-1H-indole]
Human CB1 receptor
  EC50: 100 nM

## CN(CC(N)=O)Cc1nc(-c2cn(CC3CCOCC3)c3c(Cl)cccc23)no1 [Example 20, 7-Chloro-3-[(5-{[N-(carboxamido)methyl]-N-methylamino}methyl)-([1,2,4]oxadiazol-3-yl)]-1-(tetrahydropyran-4-yl)methyl-1H-indole]
Human CB1 receptor
  EC50: 39.8 nM
Mice
  ED50: < 5 µmol/kg

From patent EP1919471B1, “(INDOL-3-YL)-HETEROCYCLE DERIVATIVES AS AGONISTS OF THE CANNABINOID CB1 RECEPTOR” (Merck Sharp & Dohme B.V., priority 2005, dated 2007)
